Our source for the EC50 values is PubChem BioAssay AID602176 (NMMLSC, 2012).

A word on the EC50: it is the midpoint of the concentration-response curve.

Activity calls are given as the source filed them. No rule for the calls is given here.

The target of the experiment is Botulinum neurotoxin type A (Clostridium botulinum (strain Hall / ATCC 3502 / NCTC 13319 / Type A)) (UniProt P0DPI1). The experiment in a line: Confirmatory dose response, Clostridium botulinum neurotoxin type A protease inhibitors, flow cytometry (AID 602176). Conditions: multiplex microsphere protease substrate cleavage. (In general: In flow cytometry, cells or beads pass a laser one at a time.)
Sequence of Botulinum neurotoxin type A (Clostridium botulinum (strain Hall / ATCC 3502 / NCTC 13319 / Type A)) (P0DPI1 whole entry, looked up): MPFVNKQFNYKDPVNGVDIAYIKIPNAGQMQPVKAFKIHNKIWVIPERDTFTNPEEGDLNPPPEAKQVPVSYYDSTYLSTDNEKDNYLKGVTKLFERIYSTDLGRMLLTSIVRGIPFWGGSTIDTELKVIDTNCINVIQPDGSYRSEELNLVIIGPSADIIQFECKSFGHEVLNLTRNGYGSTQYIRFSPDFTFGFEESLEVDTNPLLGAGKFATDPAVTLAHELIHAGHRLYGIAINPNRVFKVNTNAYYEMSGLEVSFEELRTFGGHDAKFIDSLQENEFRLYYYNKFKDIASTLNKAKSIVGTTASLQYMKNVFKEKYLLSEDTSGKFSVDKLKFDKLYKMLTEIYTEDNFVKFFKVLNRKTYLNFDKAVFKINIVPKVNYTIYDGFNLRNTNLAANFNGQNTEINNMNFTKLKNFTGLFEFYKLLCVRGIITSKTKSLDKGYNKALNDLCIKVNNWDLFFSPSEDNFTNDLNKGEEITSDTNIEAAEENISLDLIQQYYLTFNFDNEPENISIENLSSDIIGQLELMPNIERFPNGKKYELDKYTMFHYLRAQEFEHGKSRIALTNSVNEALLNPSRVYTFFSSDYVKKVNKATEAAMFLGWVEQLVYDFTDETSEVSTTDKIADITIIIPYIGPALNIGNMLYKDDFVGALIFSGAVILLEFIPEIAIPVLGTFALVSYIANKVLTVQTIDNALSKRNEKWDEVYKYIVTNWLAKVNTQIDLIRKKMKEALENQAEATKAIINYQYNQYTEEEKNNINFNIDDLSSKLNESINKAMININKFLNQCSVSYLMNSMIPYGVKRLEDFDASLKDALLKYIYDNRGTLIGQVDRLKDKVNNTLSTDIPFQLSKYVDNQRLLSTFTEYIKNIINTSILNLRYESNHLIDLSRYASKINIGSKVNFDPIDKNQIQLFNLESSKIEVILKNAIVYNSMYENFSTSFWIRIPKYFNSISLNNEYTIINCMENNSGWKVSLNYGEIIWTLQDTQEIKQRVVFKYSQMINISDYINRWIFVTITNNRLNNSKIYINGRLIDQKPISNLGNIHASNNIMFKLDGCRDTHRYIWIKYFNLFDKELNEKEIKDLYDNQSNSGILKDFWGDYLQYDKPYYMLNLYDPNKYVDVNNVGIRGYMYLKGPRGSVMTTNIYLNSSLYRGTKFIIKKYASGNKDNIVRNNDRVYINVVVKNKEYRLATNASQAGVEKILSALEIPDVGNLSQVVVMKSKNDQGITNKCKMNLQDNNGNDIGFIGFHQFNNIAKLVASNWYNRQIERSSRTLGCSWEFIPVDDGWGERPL

For `Oc1[nH]c(N=C2N=c3ccccc3=N2)c2ccccc12`, the EC50 was > 20 µM (inactive).
